# According to patent US9487504B2, “Imidazolyl analogs as syk inhibitors” (Merck Sharp & Dohme Corp., priority 2012, dated 2016):
# Target: T1, recombinant human GST-Syk (Homo sapiens, UniProt P43405)
# T1 construct: purchased Carna Biosciences 08-176
# Assay: Homogeneous Time-Resolved Fluorescence (HTRF) assay for the recombinant human Syk enzyme
# Assay type: biochemical
# Details: ATP 25 μM, 10-dose titration, read-out: rhSYK Activity
# Description: Syk inhibition may be determined using the following assay protocol:
# Homogeneous Time-Resolved Fluorescence (HTRF) Assay for the Recombinant Human Syk Enzyme:
# A recombinant GST-hSyk fusion protein was used to measure potency of compounds to inhibit human Syk activity. The recombinant human GST-Syk (Carna Biosciences #08-176) ([…]) was incubated with various concentrations of the inhibitor diluted in DMSO (0.1% final concentration) for 10 minutes at room temperature in 15 mM Tris-HCl (pH 7.5), 0.01% tween 20, 2 mM DTT in 384 well plate format. To initiate the reaction the biotinylated substrate peptide (250 nM final concentration) that contains the phosphorylation site for Syk was added with magnesium (5 mM final concentration) and ATP (25 μM final concentration). Final volume of the reaction was 10 μL. Phosphorylation of the peptide was allowed to proceed for 45 minutes at room temperature. To quench the reaction and detect the phosphorylated product, 2 nM of a Europium-anti-phosphotyrosine antibody (Perkin Elmer #AD0161) and 70 nM SA-APC (Perkin-Elmer #CR130-100) were added together in 15 mM Tris pH 7.5, 40 mM EDTA, 0.01% tween 20. Final volume of the quenching solution was 10 μL. The resulting HTRF signal was measured after 30 minutes on an EnVision (Perkin-Elmer) reader using a time-resolved fluorescence protocol. IC50 was determined following 10-dose titration (10 μM to 0.508 nM) and four parameter logistic curve fitting using the Merck Assay Data Analyzer. The rhSyk activity (IC50) is expressed as +++ (100 nM or less), ++ (between 100 and 1000 nM), + (between 1 and 10 μM).
row,Compound,IC50 [nM]
1,"OC(c1cn(-c2cccc(Nc3nccc(C(F)(F)F)n3)c2)cn1)(C1CC1)C1CC1 [Example 82, dicyclopropyl[1-(3-{[4-(trifluoromethyl)-pyrimidin-2-yl]amino}phenyl)-1H-imidazol-4-yl]methanol]",≤ 100
2,"Cc1cc(Nc2ncc(F)c(C3CC3)n2)cc(-n2cnc([C@]3(O)CC[C@@H](OC(=O)c4ccccc4)CC3)c2)c1 [Example 60, cis-4-(1-{3-[(4-cyclopropyl-5-fluoropyrimidin-2-yl)amino]-5-methylphenyl}-1H-imidazol-4-yl)-4-hydroxycyclohexyl benzoate]",100 to 1000
3,"Cc1cc(Nc2cc(C)c(F)cn2)nc(-n2cnc([C@]3(O)CC[C@@H](O)CC3)c2)c1 [Example 43, cis-1-(1-{6-[(5-fluoro-4-methylpyridin-2-yl)amino]-4-methylpyridin-2-yl}-1H-imidazol-4-yl)cyclohexane-1,4-diol]",≤ 100
4,"Cc1cc(Nc2nccc(C(F)(F)F)n2)cc(-n2cnc([C@]3(O)CC[C@@H](O)CC3)c2)c1 [Example 37, Cis-1-[1-(3-methyl-5-{[4-(trifluoromethyl)pyrimidin-2-yl]amino}phenyl)-1H-imidazol-4-yl]cyclohexane-1,4-diol]",≤ 100
5,"Cc1cc(Nc2cc(C)c(F)cn2)nc(-n2cnc([C@]3(O)CC[C@@H](OC(=O)c4ccccc4)CC3)c2)c1 [Example 48, cis-4-(1-{6-[(5-fluoro-4-methylpyridin-2-yl)amino]-4-methylpyridin-2-yl}-1H-imidazol-4-yl)-4-hydroxycyclohexyl benzoate]",≤ 100
6,"Cc1cc(Nc2nccc(C(F)(F)F)n2)cc(-n2cnc([C@@]3(O)CC[C@H](O)[C@@H](C)C3)c2)c1 [Example 55, (1R,3S,4S)-3-methyl-1-[1-(3-methyl-5-{[4-(trifluoromethyl)pyrimidin-2-yl]amino}phenyl)-1H-imidazol-4-yl]cyclohexane-1,4-diol]",≤ 100
7,"COC(=O)c1cn(-c2cc(C)cc(Nc3nccc(C(F)(F)F)n3)c2)cn1 [Example 98, Methyl 1-(3-methyl-5-{[4-(trifluoromethyl)-pyrimidin-2-yl]amino}phenyl)-1H-imidazole-4-carboxylate]",≤ 100
8,"O=C(O)CCc1cn(-c2cccc(Nc3cc(C(F)(F)F)ccn3)n2)cn1 [Example 114, 3-(1-(6-((4-(Trifluoromethyl)pyridin-2-yl)amino)pyridin-2-yl)-1H-imidazol-4-yl)propanoic acid]",≤ 100
9,"Cc1cc(Nc2nccc(C(F)(F)F)n2)cc(-n2cnc(C(C)(O)CO)c2)c1 (racemic) [Example 113, (rac)-2-[1-(3-Methyl-5-{[4-(trifluoromethyl)pyrimidin-2-yl]amino}phenyl)-1H-imidazol-4-yl]propane-1,2-diol]",≤ 100
10,"COC(=O)c1ccc2c(c1)ncn2-c1cc(C)cc(Nc2nccc(C)n2)c1 [Example 73, Methyl 1-{3-methyl-5-[(4-methyl-pyrimidin-2-yl)amino]phenyl}-1H-benzimidazole-5-carboxylate]",≤ 100
11,"O=C(c1cn(-c2cccc(Nc3nccc(C(F)(F)F)n3)c2)cn1)N1CCCC1 [Example 70, Pyrrolidin-1-yl[1-(3-{[4-(trifluoromethyl)pyrimidin-2-yl]amino}phenyl)-1H-imidazol-4-yl]methanone]",100 to 1000
12,"Cc1cc(Nc2cc(C)c(Cl)cn2)nc(-n2cnc([C@]3(O)CC[C@@H](O)CC3)c2)c1 [Example 44, cis-1-(1-{6-[(5-chloro-4-methylpyridin-2-yl)amino]-4-methylpyridin-2-yl}-1H-imidazol-4-yl)cyclohexane-1,4-diol]",≤ 100
13,"Cc1cc(Nc2nccc(C(F)(F)F)n2)cc(-n2cnc(C3(O)CCC(CC(N)=O)CC3)c2)c1 (stereo not drawn) [Example 6, 2-{cis-4-hydroxy-4-[1-(3-methyl-5-{[4-(trifluoromethyl)pyrimidin-2-yl]amino}phenyl)-1H-imidazol-4-yl]cyclohexyl)acetamide]",≤ 100
14,"CCOC(=O)C(C)(C)[C@H]1CC[C@](O)(c2cn(-c3cc(C)cc(Nc4cc(C(F)(F)F)ccn4)n3)cn2)CC1 [Example 23, Ethyl 2-{cis-4-hydroxy-4-[1-(4-methyl-6-{[4-(trifluoromethyl)pyridin-2-yl]amino}pyridin-2-yl)-1H-imidazol-4-yl]cyclohexyl}-2-methylpropanoate]",≤ 100
15,"Cc1cc(Nc2nccc(C(F)(F)F)n2)cc(-n2cnc([C@H]3CC[C@@H](C(=O)O)CC3)c2)c1 [2 (cis), Cis-4-[1-(3-methyl-5-{[4-(trifluoromethyl)pyrimidin-2-yl]amino}phenyl)-1H-imidazol-4-yl]cyclohexanecarboxylic acid]",≤ 100
16,"Cc1cc(Nc2cc(C(F)(F)F)ccn2)nc(-n2cnc(C3(O)CCN(C(N)=O)CC3)c2)c1 [Example 116, 4-Hydroxy-4-[1-(4-methyl-6-{[4-(trifluoromethyl)pyridin-2-yl]amino}pyridin-2-yl)-1H-imidazol-4-yl]piperidine-1-carboxamide]",≤ 100
17,"COC(=O)CCc1cn(-c2cc(Nc3nccc(C(F)(F)F)n3)cc(N3CCOCC3)c2)cn1 [Example 106, Methyl 3-[1-(3-morpholin-4-yl-5-{[4-(trifluoromethyl)pyrimidin-2-yl]amino}-phenyl)-1H-imidazol-4-yl]propanoate]",≤ 100
18,"COC(=O)C[C@H]1CC[C@](O)(c2cn(-c3cc(C)cc(Nc4nccc(C(F)(F)F)n4)c3)cn2)CC1 [Example 18, Methyl {cis-4-hydroxy-4-[1-(3-methyl-5-{[4-(trifluoromethyl)pyrimidin-2-yl]amino}phenyl)-1H-imidazol-4-yl]-cyclohexyl}acetate]",≤ 100
19,"Cc1cc(Nc2nccc(C3CC3)n2)cc(-n2cnc([C@]3(O)CC[C@@H](O)CC3)c2)c1 [Example 40, cis-1-(1-{3-[(4-cyclopropylpyrimidin-2-yl)amino]-5-methylphenyl}-1H-imidazol-4-yl)cyclohexane-1,4-diol]",≤ 100
20,"Cc1cc(Nc2nccc(C(F)(F)F)n2)cc(-n2cnc(C3(O)CCN(C(N)=O)CC3)c2)c1 [Example 117, 4-Hydroxy-4-[1-(3-methyl-5-{[4-(trifluoromethyl)pyrimidin-2-yl]amino}phenyl)-1H-imidazol-4-yl]piperidine-1-carboxamide]",≤ 100
21,"CC(C)(O)c1cn(-c2cc(C(F)(F)F)cc(Nc3cc(C(F)(F)F)ccn3)n2)cn1 [Example 91, 2-{1-[4-(trifluoro-methyl)-6-{[4-(trifluoromethyl)-pyridin-2-yl]amino}-pyridin-2-yl]-1H-imidazol-4-yl}propan-2-ol]",100 to 1000
22,"CCOC(=O)C1(C)CC=C(c2cn(-c3cc(C)cc(Nc4nccc(C(F)(F)F)n4)c3)cn2)CC1 (racemic) [Example 19, Ethyl 1-methyl-4-[1-(3-methyl-5-{[4-(trifluoromethyl)-pyrimidin-2-yl]amino}-phenyl)-1H-imidazol-4-yl]cyclohex-3-ene-1-carboxylate]",100 to 1000
23,"CC(C)NC(=O)c1cn(-c2cccc(Nc3nccc(C(F)(F)F)n3)c2)cn1 [Example 103, N-(1-methylethyl)-1-(3-{[4-(trifluoromethyl)pyrimidin-2-yl]amino}phenyl)-1H-imidazole-4-carboxamide]",100 to 1000
24,"Cc1cc(Nc2nccc(C(F)(F)F)n2)cc(-n2cc(C(C)(C)O)nc2C)c1 [Example 68, 2-[2-Methyl-1-(3-methyl-5-{[4-(trifluoromethyl)pyrimidin-2-yl]amino}phenyl)-1H-imidazol-4-yl]propan-2-ol]",100 to 1000
25,"Cc1cc(Nc2nccc(C(F)(F)F)n2)cc(-n2cnc(CC#N)c2)c1 [Example 77, [1-(3-methyl-5-{[4-(trifluoromethyl)pyrimidin-2-yl]amino}-phenyl)-1H-imidazol-4-yl]acetonitrile]",≤ 100
26,"Cc1cc(Nc2nccc(C)n2)cc(-n2cnc3cc(C(=O)O)ccc32)c1 [Example 72, 1-{3-methyl-5-[(4-methylpyrimidin-2-yl)amino]phenyl}-1H-benzimidazole-5-carboxylic acid]",100 to 1000
27,"Cc1cc(Nc2cc(C(F)(F)F)ccn2)nc(-n2cnc(C(C)(C)O)c2)c1 [Example 92, 2-[1-(4-methyl-6-{[4-(trifluoromethyl)pyridin-2-yl]amino}pyridin-2-yl)-1H-imidazol-4-yl]propan-2-ol]",≤ 100
28,"Cc1cc(Nc2nccc(C(F)(F)F)n2)cc(-n2cnc([C@]3(O)CC[C@H](O)[C@@H](C)C3)c2)c1 [Example 54, (1S,3S,4S)-3-methyl-1-[1-(3-methyl-5-{[4-(trifluoromethyl)pyrimidin-2-yl]amino}phenyl)-1H-imidazol-4-yl]cyclohexane-1,4-diol]",≤ 100
29,"CC(C)(O)c1cn(-c2cccc(Nc3nccc(C(F)(F)F)n3)c2)cn1 [Example 104, 2-[1-(3-{[4-(trifluoromethyl)pyrimidin-2-yl]amino}-phenyl)-1H-imidazol-4-yl]propan-2-ol]",100 to 1000

# Same assay, conditions: ATP 25 μM, 10-dose titration, read-out: rhSYK IC50
row,Compound,IC50 [nM]
1,"CCOC(=O)C1CCC(O)(c2cn(-c3cc(C)cc(Nc4nccc(C(F)(F)F)n4)c3)cn2)CC1 (stereo not shown) [1, Step 1]",12.7
2,"Cc1cc(Nc2nccc(C(F)(F)F)n2)cc(-n2cnc([C@]3(O)CC[C@@H](O)CC3)c2)c1 [Example 37, Cis-1-[1-(3-methyl-5-{[4-(trifluoromethyl)pyrimidin-2-yl]amino}phenyl)-1H-imidazol-4-yl]cyclohexane-1,4-diol]",3.7
3,"Cc1cc(Nc2nccc(C(F)(F)F)n2)cc(-n2cnc([C@H]3CC[C@@H](C(=O)O)CC3)c2)c1 [2 (cis), Cis-4-[1-(3-methyl-5-{[4-(trifluoromethyl)pyrimidin-2-yl]amino}phenyl)-1H-imidazol-4-yl]cyclohexanecarboxylic acid]",12.5
4,"Cc1cc(Nc2cc(C(F)(F)F)ccn2)nc(-n2cnc(C3(O)CCN(C(N)=O)CC3)c2)c1 [Example 116, 4-Hydroxy-4-[1-(4-methyl-6-{[4-(trifluoromethyl)pyridin-2-yl]amino}pyridin-2-yl)-1H-imidazol-4-yl]piperidine-1-carboxamide]",3.6
5,"Cc1cc(Nc2nccc(C(F)(F)F)n2)cc(-n2cnc(C3(O)CCN(C(N)=O)CC3)c2)c1 [Example 117, 4-Hydroxy-4-[1-(3-methyl-5-{[4-(trifluoromethyl)pyrimidin-2-yl]amino}phenyl)-1H-imidazol-4-yl]piperidine-1-carboxamide]",9
